Reference: ChEMBL document CHEMBL1687775, “Bioavailability and population pharmacokinetics of voriconazole in lung transplant recipients” (Antimicrob Agents Chemother, 2010)

Experiments:
Type in all cases: ADME, organism-based
[1] = Cmax in lung transplant recipient at 6 mg/kg, iv twice a day administered immediately post transplant as 2 hr infusion; parameters: dose 6 mg/kg, route intravenous; details: human, in vivo
[2] = Cmax in lung transplant recipient at 6 mg/kg, iv twice a day administered immediately post transplant as 2 hr infusion followed by 200 mg, po bid for 3 months by HPLC analysis; parameters: dose 6 mg/kg, route oral; details: human, in vivo
[3] = Plasma concentration in lung transplant recipient at 6 mg/kg, iv twice a day administered immediately post transplant as 2 hr infusion followed by 200 mg, po bid for 3 months by HPLC analysis; parameters: dose 6 mg/kg, route oral; details: human
[4] = Tmax in lung transplant recipient at 6 mg/kg, iv twice a day administered immediately post transplant as 2 hr infusion followed by 200 mg, po bid for 3 months by HPLC analysis; parameters: dose 6 mg/kg, route oral; details: human, in vivo

## C[C@@H](c1ncncc1F)[C@](O)(Cn1cncn1)c1ccc(F)cc1F [VORICONAZOLE]
[1]
  Cmax: 3600 ng/mL
[2]
  Cmax: 5900 ng/mL
[3]
  concentration at 2 h: 1000 ng/mL
[4]
  Tmax: 1.9 h
